This is an account of results in PMC6270194 (Molecules, 2013).

Marks after values point to notes of the source that are not given here.

The nature of series [1]: DPPH· free radical scavenging assay. The conditions noted are these: for IC50: DPPH· scavenging, 0.2 mM DPPH· in DMSO, absorbance 515 nm; for radical scavenging capacity higher than curcumin (fold) / antiradical capacity lower than other series 3 analogues (fold): DPPH assay; for radical scavenging capacity higher than curcumin (fold): relative to curcumin; for antiradical capacity lower than other series 3 analogues (fold): relative to other curcumin analogues in series 3. As for the experimental part:
DPPH^· assay is widely used to observe radical scavenging activity of various compounds and extracts. DPPH^· is stable N radical which is reduced to hydrazine during its reaction with hydrogen donors.
Initially, 0.2 mM DPPH^· solution was prepared using DMSO as the solvent. […] During reduction of DPPH^· solution by antiradical compound, absorption of DPPH^· was measured at 515 nm. The spectrophotometric data was acquired using BMG FLUOstar OPTIMA spectrophotometer (BMG Labtech, Durham, NC, USA) and the IC50 values were calculated.

The test system of a further series is Tyrosinase. As to the kind of experiment: Tyrosinase inhibition assay (L-DOPA substrate). In kind it is biochemical. The conditions noted are these: 10 μM compounds dissolved in DMSO. As for the experimental part: Tyrosinase inhibition was calculated based on previously described methods using L-DOPA as the substrate. Tyrosinase inhibition depended upon the amount of dopachrome produced in the reaction mixture. Absorption was measured at 490 nm to calculate the amount of dopachrome produced. The assay was performed in 96-well clear polystyrene plates using FLUOstar OPTIMA plate reader. The tyrosinase inhibitory effect of sample was measured using the following the Equation (1).

Series [2] deals with human endothelial lung cells. As to the kind of experiment: Cytotoxicity analysis by LDH release assay. In kind it is cell-based. Particulars: 10 µM, 24 hours. The protocol:
In the current study authors conducted a toxicology study to confirm safety of compounds and their dosage for potential animal or clinical studies. The study was conducted at 10 µM concentration using human endothelial lung cells. […] Literature reports on cytotoxic behavior of potent natural antioxidants are rare. Research in the field of free radicals mainly deals with screening of novel antioxidants and their mechanism of action.
Human lung cell line (ATCC® PCS-100-022™) was purchased from American Type Culture Collection (Cederlane, Burlington, ON, Canada). Cell lines were maintained and grown in DMEM complete growth media, supplemented with 10% fetal bovine serum (FBS), 100 units/mL penicillin and 100 µg/mL streptomycin (Cederlane) at 37 °C, in a humidified 5% CO2 incubator. Cell growth medium was changed every 48 hours and when cells reached 80% confluence, they were detached from 75 cm^2 tissue culture flask using 0.25% trypsin-EDTA treatment. The detached cells were collected in sterile tube in FBS free media. Collected cells were then counted using the Millipore Scepter 2.0 handheld automated cell counter. Further assay specific analysis was performed as described in section 2.10.
Cytotoxicity assay was performed using Promega Cytotox 96® non-radioactive colorimetric assay (Promega Corporation). The assay measures the lactate dehydrogenase (LDH) release upon cell lysis. The released LDH from cells was measured in an enzymatic assay based on conversion of tetrazolium salt to a red formazan product. Briefly, 5,000 human endothelial lung cells in 100 µL of serum-free culture medium were seeded in 96 well sterile plates. Cells were allowed to adhere to the plates for 24 h at 37 °C in a humidified, 5% CO2 incubator. After 24 h, the serum-free media was replaced by test compounds in 100 µL of serum-free culture medium. […] The test compounds at 10 µM concentration were allowed to interact with cells for 24 hours after which absorbance were recorded at 490 nm using BMG FLUOstar OPTIMA spectrophotometer (BMG Labtech, Durham, NC). […]

Another series has as its target T1, HIV-1 protease (Human immunodeficiency virus type 1 group M subtype B, UniProt P04585).
T1 construct: HIV-1 protease enzyme (Sigma Aldrich); purchased Sigma Aldrich
Put plainly: HIV-1 protease inhibition assay (fluorescent substrate). In kind it is biochemical. Particulars: 10 μM compounds dissolved in DMSO; for inhibition at 10 µM: read-out: % Enzyme Inhibition HIV-I protease. The protocol:
HIV-1 protease inhibition was performed by using a previously described method. HIV protease fluorescent substrate and HIV-1 protease enzyme (Sigma Aldrich) were used to determine HIV inhibition capacity of sample. Three primary controls i.e., blank, sample and positive control were used. Reaction mixture of 200 µL comprised of five enzyme units (5U) of HIV-1 protease along with 0.5 pmol of enzyme substrate. After addition of both enzymes and substrates, test compounds were added in different concentrations. Reaction mixture was incubated at 37 °C which leads to generation of fluorescence signal by cleaving Tyr-Pro peptide bond of the substrate. Finally reaction mixture was heated for 5 minutes at 90 °C to stop the reaction. The mixture was centrifuged at 12,000 rpm for 3 min. and supernatant was used to measure the fluorescence signal. The enzyme inhibition was calculated using the Equation (1).

Series [3] can be described thus: Oxygen radical absorbance capacity (ORAC) assay. The conditions noted are these: 1 μM compounds dissolved in DMSO; Trolox equivalence; mean ± SD. As for the experimental part:
ORAC assay is based on the free radical damage to a fluorescence probe measured by fluorescence intensity over the time. The fluorescein sodium salt was used as fluorescence probe and change in its intensity was estimated as the index of the degree of free radical damage. Assay was performed using method described elsewhere. Briefly, the standards and samples were prepared using 75 mM phosphate buffer (pH 7). As the peroxy radicals are generated from decomposition of 2,2'-azobis(2-amidino-propane) dihydrochloride (AAPH), the signal was quenched from fluorescein. However, in the presence of antioxidant samples the fluorescence signal can be stabilize which depends directly upon the antioxidant’s capacity to neutralize the free radical. Quadratic relation emerging from florescent area under the decaying curve was used to calculate antioxidant capacity as mmol Trolox equivalence per L.

In series [4] the test system is angiotensin converting enzyme (ACE). Put plainly: Angiotensin converting enzyme (ACE) inhibition assay. The format is biochemical. The conditions noted are these: 10 μM compounds dissolved in DMSO. The protocol: ACE assay is based on ACE inhibitory activity of test samples. The enzyme activity was measured by production of hippuric acid from the substrate hippuryl-L-histidyl-L-leucine (HHL). ACE cleaves the substrate to expose a free N-terminus, which was fluorogenically labeled with o-phthaldialdehyde (OPA). The florescence signal was measured by using excitation of 350 nm and emission of 500 nm. ACE inhibition activity of samples was measured using the following equation: % inhibition = 100 − (Acontrol − Asample)/Acontrol × 100 (1) where A is the absorbance Equation (1).

Series [5] in a line: Ferric reducing ability of plasma (FRAP) assay. The conditions noted are these: 10 μM compounds dissolved in DMSO; Trolox equivalence; mean ± SD. From the text:
The FRAP assay uses antioxidants in a redox-linked colorimetric assay to reduce ferric tripyridyl triazine to ferrous form at low pH [20].
FRAP assay is based on ferric to ferrous ion reduction to test the electron donating capacity of antioxidants. The assay was modified by using the 96-well microplate reader with an injection port system. Briefly, the FRAP working reagent was made using acetate buffer, 2,4,6-Tris (2-pyridyl)-s-triazine solution and ferric chloride in the ratio 10:1:1. […] After 6 min reaction time, absorbance was measured at 593 nm. Trolox standards at different concentrations were used to calculate the antioxidant capacity as mmol Trolox equivalence per L.

In turn, `Cc1ccc(/C=C/C(O)=C2\CCC/C(=C\c3ccc(C)cc3)C2=O)cc1` [Compound 2g] yielded an IC50 in series [1] of 1360 µM. For the same molecule, in the series with Tyrosinase, the “% Enzyme Inhibition Tyrosinase” value was 59.44 ^fg %. Besides, in series [2], the “cytotoxicity ranking (LDH release), in words” value (“cytotoxicity ranking” for short) is reported as “lowest cytotoxicity effects”. The inhibition at 10 µM on HIV-1 protease turned out to be 20.1%. The ORAC antioxidant capacity in series [3] is 0.84 ± 0.01 ^d mmole TE/L. In addition, the “% Enzyme Inhibition ACE” value in series [4] is listed as 15.04 ^g %. For the same molecule, in series [5], the FRAP antioxidant capacity is recorded as 1.12 ± 0.02 ^g mmole TE/L.
For `O=C1/C(=C(O)/C=C/c2ccccc2)CC/C1=C\c1ccccc1` [Compound 3a], in series [1], the “radical scavenging capacity higher than curcumin (fold)” value was “over 10 fold” and the IC50 is 70 µM. The “% Enzyme Inhibition Tyrosinase” value in the series with Tyrosinase is on record as 70.85 ^c %. Besides, the inhibition at 10 µM on HIV-1 protease was 27%. For the same molecule, the ORAC antioxidant capacity in series [3] is given as 1.12 ± 0.1 ^c mmole TE/L. In series [4], the “% Enzyme Inhibition ACE” value is listed as 51.96 ^ef %. Also, in series [5], the FRAP antioxidant capacity is given as 1.41 ± 0.1 ^f mmole TE/L.
`COc1ccc(/C=C/C(O)=C2\CC/C(=C\c3ccc(OC)cc3)C2=O)cc1` [Compound 3c]: in series [1], the “antiradical capacity lower than other series 3 analogues (fold)” value is on record as “approximately 10 fold” and the IC50 was 340 µM. Also, the “% Enzyme Inhibition Tyrosinase” value in the series on Tyrosinase is reported as 58.54 ^g %. Moreover, the “cytotoxicity ranking” value in series [2] is “highest cytotoxic behavior”. Besides, at HIV-1 protease, the inhibition at 10 µM was found to be 35.9%. Further, in series [3], the ORAC antioxidant capacity is recorded as 1.17 ± 0.1 ^b mmole TE/L. Also, the “% Enzyme Inhibition ACE” value in series [4] is recorded as 67.42 ^cd %. Also, in series [5], the FRAP antioxidant capacity was 1.09 ± 0.1 ^gh mmole TE/L.
Turning to `O=C1/C(=C(O)/C=C/c2ccc(Cl)cc2)CC/C1=C\c1ccc(Cl)cc1` [Compound 3f], in series [1], the “radical scavenging capacity higher than curcumin (fold)” value was “over 10 fold” and half-maximal inhibition (IC50) was put at 90 µM. For the same molecule, in the series on Tyrosinase, the “% Enzyme Inhibition Tyrosinase” value is listed as 61.31 ^e %. For the same molecule, the “cytotoxicity ranking” value in series [2] is given as “lowest cytotoxicity effects”. At HIV-1 protease, the inhibition at 10 µM was 23.3%. In addition, in series [3], the ORAC antioxidant capacity is listed as 1.30 ± 0.02 ^b mmole TE/L. Also, the “% Enzyme Inhibition ACE” value in series [4] is reported as 75.12 ^bc %. In addition, the FRAP antioxidant capacity in series [5] is reported as 1.09 ± 0.1 ^gh mmole TE/L.
Turning to `Cc1ccc(/C=C/C(O)=C2\CC/C(=C\c3ccc(C)cc3)C2=O)cc1` [Compound 3g], in series [1], the “antiradical capacity lower than other series 3 analogues (fold)” value is given as “approximately 10 fold” and inhibition was half-maximal at 510 µM (IC50). Further, the “% Enzyme Inhibition Tyrosinase” value with Tyrosinase is 67.18 ^d %. Moreover, at HIV-1 protease, the inhibition at 10 µM is 22.7%. Besides, in series [3], the ORAC antioxidant capacity was 1.25 ± 0.04 ^bc mmole TE/L. Besides, in series [4], the “% Enzyme Inhibition ACE” value is 46.19 ^ef %. For the same molecule, in series [5], the FRAP antioxidant capacity is 0.95 ± 0.02 ^hi mmole TE/L.
As for `O=C1/C(=C(O)/C=C/c2ccc([N+](=O)[O-])cc2)CC/C1=C\c1ccc([N+](=O)[O-])cc1` [Compound 3h], in series [1], the “antiradical capacity lower than other series 3 analogues (fold)” value is “approximately 10 fold” and the IC50 came to 360 µM. The “% Enzyme Inhibition Tyrosinase” value in the series with Tyrosinase is 59.22 ^fg %. For the same molecule, the inhibition at 10 µM on HIV-1 protease came to 44.8%. In addition, in series [3], the ORAC antioxidant capacity is 0.84 ± 0.1 ^d mmole TE/L. Besides, the “% Enzyme Inhibition ACE” value in series [4] is given as 88.01 ^ab %. Further, the FRAP antioxidant capacity in series [5] is on record as 1.05 ± 0.01 ^ghi mmole TE/L.
As for “(E)-2-(4-hydroxy-3-methoxybenzylidene)-5-((E)-3-(4-hydroxy-3-methoxyphenyl)acryloyl)-cyclopentanone [Compound 3d]”, in series [1], the “radical scavenging capacity higher than curcumin (fold)” value was “over 10 fold” and the IC50 was found to be 70 µM. The “% Enzyme Inhibition Tyrosinase” value in the series with Tyrosinase is on record as 79.99 ^b %. Besides, at HIV-1 protease, the “% Enzyme Inhibition HIV-I protease” value is recorded as 41.8 ^de %. Also, the ORAC antioxidant capacity in series [3] is 0.75 ± 0.05 ^d mmole TE/L. Further, in series [4], the “% Enzyme Inhibition ACE” value is reported as 93.89 ^a %. Moreover, the FRAP antioxidant capacity in series [5] is 6.70 ± 0.32 ^a mmole TE/L.
